US4731486A, “Hydroformylation using low volatile phosphine ligands” (Union Carbide Corporation, priority 1986, dated 1988)
Counter-ions that a name gives are not always drawn.

Tests used:
[1] = Batch hydroformylation of propylene in stirred autoclave (Examples 1, 2, 11, 14, 19); conditions: 200 ppm Rh, about 120 mole equivalents ligand, 100° C., 90 psia 1:1:1 H2:CO:C3H6; for Linear/Branched Aldehyde Mole Ratio: Texanol/Carbowax PEG-600: Li 100:0, K 9:1, Rb 8:1, Ca 20:1, Ba 7:1; for Reaction Rate (C4 aldehydes): Texanol/Carbowax PEG-600: Li 100:0, K 9:1, Rb 8:1, Cs 7:1, Ca 20:1, Ba 7:1, Sr 18:1
Method: A series of various rhodium complex catalyst precursor solutions consisting essentially of the solubilized reaction product of rhodium dicarbonyl acetylacetonate and various monosulfonated triphenylphosphine metal salt ligands were prepared and employed to hydroformylate propylene into C4 aldehydes in the following manner.
Each rhodium catalytic precursor solution so prepared was then employed to hydroformylate propylene in a magnetically stirred, 100 mL capacity, stainless steel autoclave which was attached to a gas manifold for introducing gases to the desired partial pressures. The autoclave was also equipped with a pressure calibrator for determining reaction pressure to ±0.01 psia. and a platinum resistance thermometer for determining reactor solution temperatures to ±0.10° C. The reactor was heated externally by two 300 watt heating bands. The reactor solution temperature was controlled by a platinum resistance sensor connected to an external proportional temperature controller for controlling the temperature of the external band heaters.
In each non-aqueous hydroformylation reaction, about 15 milliliters (about 14 grams) of the rhodium catalytic precursor solution so prepared was charged to the autoclave reactor under nitrogen and heated to the reaction temperature employed (as given in Table 1 below). The reactor was then vented down to 5 psig. and a premixed gas mixture of 1:1:1 carbon monoxide:hydrogen:propylene was introduced into the reactor via the gas manifold (partial pressures given in Table 1) and the propylene so hydroformylated.
A comparison of the catalytic activity of aqueous and non-aqueous solutions of monosulfonated triphenylphosphine sodium salt ligand promoted catalysts in hydroformylating various molecular weight alphe-olefins was determined as follows.
Both the aqueous and non-aqueous hydroformylation reactions were conducted under identical conditions with regard to temperature, rhodium and ligand concentration, hydrogen and carbon monoxide partial pressure and olefin concentration.

[2] = Batch hydroformylation of dodecene-1 (Examples 13, 14, 18, 19); conditions: heptanal, 100° C., 200 ppm Rh, 60 psia 2:1 H2:CO
[3] = Continuous single pass hydroformylation of butene-1 (Examples 3, 4, 5, 7, 12)
Method: Continuous hydroformylation of butene-1 a monosulfonated triphenylphosphine metal salt ligand was conducted in the following manner.
The non-aqueous hydroformylation was conducted in a glass reactor operating in a continuous single pass butene-1 hydroformylation mode. The reactor consisted of a three-ounce pressure bottle submersed in an oil bath with a lass front for viewing. About 20-mL of a freshly prepared rhodium catalytic precursor solution was charged to the reactor with a syringe, after purging the system with nitrogen. […] After closing the reactor, the system was again purged with nitrogen and the oil bath was heated to furnish the desired hydroformylation reaction temperature. The hydroformylation reaction was conducted at a total gas pressure of about 160 psig., the partial pressures of hydrogen, carbon monoxide, and butene-1 being given in Table 3 below, the remainder being nitrogen and aldehyde product.
The flows of the feed gases (carbon monoxide, hydrogen, butene-1 and nitrogen) were controlled individually with mass flow meters and the feed gases dispersed into the precursor solution via microporous stainless steel spargers. The unreacted portion of the feed gases was stripped out with the product C5 aldehydes and the outlet gas analyzed over about 12 days of continuous operation.

[4] = Solubility of metal salt ligands in different aldehydes; type: physicochemical
[5] = Solubility of metal salt ligands in nonanal with added solubilizing agent; type: physicochemical; conditions: 25° C., nonanal with 1:4 CARBOWAX TPEG-900/TERGITOL NP-9
[6] = CARBOWAX PEG-600, two liquid organic layers
[7] = TERGITOL 15-S-7/Carbowax TPEG-990 (3:1)
[8] = TERGITOL 24-L-75N/CARBOWAX TPEG-990 (4:1)
[9] = Texanol/PEG-600 7:1, day 1.0, 101 °C, CO 18, H2 70, C4H8 11 psia
[10] = Texanol/PEG-600 7:1, day 1.8, 101 °C, CO 16, H2 62, C4H8 14 psia
[11] = Texanol/PEG-600 7:1, day 5.0, 101 °C, CO 12, H2 66, C4H8 19 psia
[12] = Texanol/PEG-600 7:1, day 5.9, 101 °C, CO 13, H2 66, C4H8 20 psia
[13] = Texanol/PEG-600 7:1, day 6.9, 101 °C, CO 14, H2 62, C4H8 22 psia
[14] = Texanol/PEG-600 7:1, day 7.0 (so in the source), […], CO 18, H2 62, C4H8 22 psia
[15] = Texanol/PEG-600 7:1, day 7.9, 101 °C, CO 16, H2 55, C4H8 24 psia
[16] = Texanol/PEG-600 7:1, day 9.0, […], CO 18, H2 60, C4H8 23 psia
[17] = Texanol/PEG-600 7:1, day 11.0, […], CO 19, H2 63, C4H8 21 psia
[18] = Texanol/PEG-600 7:1, day 11.7, […], CO 20, H2 63, C4H8 21 psia
[19] = Texanol/PEG-600 7:1, day 12.6, 103 °C, CO 20, H2 63, C4H8 22 psia
[20] = Texanol, day 0.8, 101 °C, CO 18, H2 48, C4H8 19
[21] = Texanol, day 4.0, 101 °C, CO 17, H2 52, C4H8 49
[22] = Texanol, day 6.0, 101 °C, CO 17, H2 52, C4H8 50
[23] = Texanol, day 6.9, 101 °C, CO 19, H2 50, C4H8 41
[24] = Texanol, day 8.0, […], CO 18, H2 56, C4H8 38
[25] = Texanol, day 9.0, […], CO 18, H2 57, C4H8 38
[26] = Texanol, day 10.0, […], CO 18, H2 57, C4H8 38
[27] = Texanol, day 10.7, […], CO 18, H2 57, C4H8 38
[28] = Texanol, day 11.6, 103 °C, CO 18, H2 57, C4H8 38

## O=S(=O)(O)c1cccc(P(c2ccccc2)c2ccccc2)c1 [TPPMS-Ba, monosulfonated triphenylphosphine barium salt]
[1]
  Linear/Branched Aldehyde Mole Ratio: 4.1
  Reaction Rate (C4 aldehydes): 1.43 Gmoles/L/Hr
[2]; [6]
  Linear/Branched Aldehyde Mole Ratio: 10.0
  Reaction Rate: 1.22 G moles/L/hr
[2]; [7]
  Linear/Branched Aldehyde Mole Ratio: 9.4
  Reaction Rate: 0.45 G moles/L/hr
[2]; [8]
  Linear/Branched Aldehyde Mole Ratio: 10.9
  Reaction Rate: 0.76 G moles/L/hr
[3]; [9]
  Linear/Branched Aldehyde Mole Ratio: 6.91
  Rate (C5 aldehydes), daily average: 2.07 gmoles/L/Hr
[3]; [10]
  Linear/Branched Aldehyde Mole Ratio: 7.10
  Rate (C5 aldehydes), daily average: 2.10 gmoles/L/Hr
[3]; [11]
  Linear/Branched Aldehyde Mole Ratio: 7.12
  Rate (C5 aldehydes), daily average: 2.51 gmoles/L/Hr
[3]; [12]
  Linear/Branched Aldehyde Mole Ratio: 7.03
  Rate (C5 aldehydes), daily average: 2.52 gmoles/L/Hr
[3]; [13]
  Linear/Branched Aldehyde Mole Ratio: 6.32
  Rate (C5 aldehydes), daily average: 2.71 gmoles/L/Hr
[3]; [14]
  Linear/Branched Aldehyde Mole Ratio: 6.02
  Rate (C5 aldehydes), daily average: 2.60 gmoles/L/Hr
[3]; [15]
  Linear/Branched Aldehyde Mole Ratio: 6.16
  Rate (C5 aldehydes), daily average: 2.71 gmoles/L/Hr
[3]; [16]
  Linear/Branched Aldehyde Mole Ratio: 6.01
  Rate (C5 aldehydes), daily average: 2.73 gmoles/L/Hr
[3]; [17]
  Linear/Branched Aldehyde Mole Ratio: 6.20
  Rate (C5 aldehydes), daily average: 2.46 gmoles/L/Hr
[3]; [18]
  Linear/Branched Aldehyde Mole Ratio: 6.14
  Rate (C5 aldehydes), daily average: 2.37 gmoles/L/Hr
[3]; [19]
  Linear/Branched Aldehyde Mole Ratio: 5.85
  Rate (C5 aldehydes), daily average: 2.30 gmoles/L/Hr
[4]; Butyraldehyde, 60 °C
  Metal Salt Solubility: 0.6 Wt. %
[4]; Heptanal, 80 °C
  Metal Salt Solubility: 0.2 Wt. %
[4]; Nonanal, 80 °C
  Metal Salt Solubility: 0.2 Wt. %
[4]; Propionaldehyde, 35 °C
  Metal Salt Solubility: 0.5 Wt. %
[4]; Tridecanal, 80 °C
  Metal Salt Solubility: 0.3 Wt. %
[4]; Valeraldehyde, 80 °C
  Metal Salt Solubility: 0.1 Wt. %
[5]
  Metal Salt Solubility: 33 Wt. %

## O=S(=O)(O)c1cccc(P(c2ccccc2)c2ccccc2)c1 [TPPMS-Li, monosulfonated triphenylphosphine lithium salt]
[1]; lithium salt
  Linear/Branched Aldehyde Mole Ratio: 6.3
  Reaction Rate (C4 aldehydes): 0.35 Gmoles/L/Hr
[3]; [20]
  Linear/Branched Aldehyde Mole Ratio: 30.34
  Rate (C5 aldehydes), daily average: 1.02 gmoles/L/Hr
[3]; [21]
  Linear/Branched Aldehyde Mole Ratio: 11.20
  Rate (C5 aldehydes), daily average: 1.25 gmoles/L/Hr
[3]; Texanol, day 4.8, 101 °C, CO 17, H2 52, C4H8 50
  Rate (C5 aldehydes), daily average: 1.19 gmoles/L/Hr
[3]; [22]
  Linear/Branched Aldehyde Mole Ratio: 2.98
  Rate (C5 aldehydes), daily average: 1.27 gmoles/L/Hr
[3]; [23]
  Linear/Branched Aldehyde Mole Ratio: 31.75
  Rate (C5 aldehydes), daily average: 1.28 gmoles/L/Hr
[3]; [24]
  Linear/Branched Aldehyde Mole Ratio: 40.30
  Rate (C5 aldehydes), daily average: 1.28 gmoles/L/Hr
[3]; [25]
  Linear/Branched Aldehyde Mole Ratio: 28.90
  Rate (C5 aldehydes), daily average: 1.30 gmoles/L/Hr
[3]; [26]
  Linear/Branched Aldehyde Mole Ratio: 29.63
  Rate (C5 aldehydes), daily average: 1.27 gmoles/L/Hr
[3]; [27]
  Linear/Branched Aldehyde Mole Ratio: 37.18
  Rate (C5 aldehydes), daily average: 1.27 gmoles/L/Hr
[3]; [28]
  Linear/Branched Aldehyde Mole Ratio: 30.18
  Rate (C5 aldehydes), daily average: 1.21 gmoles/L/Hr
[4]; Butyraldehyde, 60 °C, lithium salt
  Metal Salt Solubility: 0.5 Wt. %
[4]; Heptanal, 80 °C, lithium salt
  Metal Salt Solubility: < 0.7 Wt. %
[4]; Nonanal, 80 °C, lithium salt
  Metal Salt Solubility: < 0.5 Wt. %
[4]; Propionaldehyde, 35 °C, lithium salt
  Metal Salt Solubility: 8.8 Wt. %
[4]; Tridecanal, 80 °C, lithium salt
  Metal Salt Solubility: < 0.5 Wt. %
[4]; Valeraldehyde, 80 °C, lithium salt
  Metal Salt Solubility: < 0.5 Wt. %
[5]; lithium salt
  Metal Salt Solubility: 12 Wt. %
